What was measured:
[1] = test system: adult skin fibroblasts; assay: myofibroblast transformation, anti-α-SMA immunocytochemistry / morphology; type: cell-based, human; conditions: co-treatment with TGF-β1 in serum-free medium; EP2 agonist 100 nM, EP4 agonist 10 nM
Text: FIGS. 1A-D show immunohistochemical staining of human adult skin fibroblasts treated with vehicle (FIG. 1A), transforming growth factor beta-1 (TGF-β1; FIG. 1B), TGF-β1+ prostaglandin receptor subtype-4 (EP4) agonist (FIG. 1C), or TGF-β1+ prostaglandin receptor subtype 2 (EP2) agonist (FIG. 1D). TGF-β1 induced transformation of myofibroblasts, which stained green with anti-alpha-smooth muscle actin (α-SMA) immunocytochemistry.
(§1) To perform the myofibroblast transformation assay, adult skin fibroblasts were cultured until 70% confluent, washed with phosphate buffered saline (PBS), and then starved in serum-free medium for 48 hours. Post starvation, cells were treated with TGF-β1 at 2 ng/ml alone or in combination with Compound V—100 nM, Compound II—10 nM or vehicle for 96 hrs in a fresh serum-free medium (TGF-beta1 from Sigma Aldrich, USA). Cell lysates were collected at the end of the study and Western blot was performed to monitor the expression of alpha-smooth muscle actin (α-SMA), the marker of myofibroblasts.
as §1, with “PBS,” for “phosphate buffered saline (PBS),”, “hrs.” for “hours.”, “TGF-beta1” for “TGF-β1”, “III—100” for “V—100”, “I—10” for “II—10”, “(TGF-β1” for “(TGF-beta1”
Normal skin fibroblasts are slim and spindle-shaped without detectable α-SMA (marker of myofibroblasts), 6 days post culturing in a serum-free medium (FIGS. 1-2).

[2] = test system: adult skin fibroblasts; assay: myofibroblast transformation assay, Western blot of α-SMA expression; type: cell-based, human; conditions: co-treatment with TGF-β1 2 ng/ml for 96 hrs in serum-free medium; EP2 agonist 100 nM, EP4 agonist 10 nM
Protocol: as §1
Cells were washed with cold PBS three times and lysed with a lysis buffer containing phosphatase inhibitors and proteinase inhibitors (Invitrogen, San Diego, Calif.). Protein level in lysates was quantified (bicinchoninic acid (BCA) protein assay kit, Pierce, USA). For Western blot, an equal amount of protein was applied at each lane, and subjected to electrophoresis. […] Fluorescence signals associated with target proteins were detected upon exposure to fluorescence-sensitive films (Cell signaling Technology, Inc., Berverly, Mass.). […] Beta-actin, a house-keeping gene, was also quantified on the same membrane as an internal control for loading amount. […]

Row | Structure (SMILES) | cell size (TGF-β1-induced increase) [1] | α-SMA positive stress fibers [1] | reduction of TGF-β1-induced α-SMA expression (Western blot) [2]
1 | O=C(O)CCCCCCN1C(=O)CC[C@@H]1/C=C/C(O)Cc1ccccc1 (stereo partly drawn) [Compound III] | but not cell size | significantly reduced | approximately 50%
2 | CC1(C)C(=O)[C@H](C/C=C\CCCC(=O)O)[C@@H](/C=C/[C@H](O)CCc2sc3ccccc3c2Cl)[C@@H]1O [Compound I] | but not cell size | significantly reduced | ~75%

From patent US20120046332A1, “COMPOSITIONS AND METHODS FOR TREATING CORNEAL HAZE” (ALLERGAN, INC., priority 2010, published 2012)
